{
  "source": "patent US7125990B2",
  "about": "“Imidazolyl derivatives as corticotropin releasing factor inhibitors” (Bristol-Myers Squibb COmpany, priority 2001, dated 2006)",
  "target": "T1, CRF1 receptors (Homo sapiens, UniProt P34998)",
  "T1 construct": "endogenous in cells; host or cells: IMR-32 cells, transformed with 2.5 µM 5'-bromo-2'-deoxyuridine for 10 days; membrane preparation",
  "T1 sequence (P34998 24-415)": "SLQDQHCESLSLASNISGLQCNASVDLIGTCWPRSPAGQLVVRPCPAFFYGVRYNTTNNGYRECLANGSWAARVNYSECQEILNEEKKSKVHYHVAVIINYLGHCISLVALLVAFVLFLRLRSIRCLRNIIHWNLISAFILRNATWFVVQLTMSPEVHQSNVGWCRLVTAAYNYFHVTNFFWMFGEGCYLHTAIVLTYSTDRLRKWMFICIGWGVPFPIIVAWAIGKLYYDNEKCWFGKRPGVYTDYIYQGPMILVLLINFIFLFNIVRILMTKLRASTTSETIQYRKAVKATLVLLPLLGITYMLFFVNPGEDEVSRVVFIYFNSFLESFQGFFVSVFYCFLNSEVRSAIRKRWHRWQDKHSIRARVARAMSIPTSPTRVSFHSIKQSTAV",
  "assay": "CRF1 receptor radioligand binding assay ([125I]-oCRF competition, IMR-32 cell membranes)",
  "conditions": "IMR-32 cell membranes, [125I]-oCRF 100 pM; read-out: Ki (CRF-1R)",
  "method_in_brief": "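Buffer: Tris pH 7.2 with MgCl2, BSA, Triton X-100, aprotinin, leupeptin; reaction stopped with ice-cold wash and filtered. Nonspecific binding set with 10 μM oCRF.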",
  "data": [
    {"smiles": "Cc1cc(C)c(-n2c(Cl)cn3c(CN(C)Cc4ccccc4)c(C(F)(F)F)nc23)c(C)c1", "note": "[Example 307, Benzyl-[6-chloro-2-trifluoromethyl-7-(2,4,6-trimethyl-phenyl)-7H-imidazo[1,2-a]imidazol-3-ylmethyl]-methyl-amine]", "values": [
      {"measurement": "Ki", "result": "< 1000", "unit": "nM"}
    ]},
    {"smiles": "Cc1cc(C)c(-n2c(Cl)cn3c(CN(C)CCc4ccccc4)c(C(F)(F)F)nc23)c(C)c1", "note": "[Example 308, [6-Chloro-2-trifluoromethyl-7-(2,4,6-trimethyl-phenyl)-7H-imidazo[1,2-a]imidazol-3-ylmethyl]-methyl-phenethyl-amine]", "values": [
      {"measurement": "Ki", "result": "< 1000", "unit": "nM"}
    ]},
    {"smiles": "CCN(Cc1ccccc1)Cc1c(C(F)(F)F)nc2n(-c3c(C)cc(C)cc3C)c(Cl)cn12", "note": "[Example 309, Benzyl-[6-chloro-2-trifluoromethyl-7-(2,4,6-trimethyl-phenyl)-7H-imidazo[1,2-a]imidazol-3-ylmethyl]-ethyl-amine]", "values": [
      {"measurement": "Ki", "result": "< 1000", "unit": "nM"}
    ]},
    {"smiles": "CCCCN(C)Cc1c(C(F)(F)F)nc2n(-c3c(C)cc(C)cc3C)c(Cl)cn12", "note": "[Example 310, Butyl-[6-chloro-2-trifluoromethyl-7-(2,4,6-trimethyl-phenyl)-7H-imidazo[1,2-a]imidazol-3-ylmethyl]-methyl-amine]", "values": [
      {"measurement": "Ki", "result": "< 1000", "unit": "nM"}
    ]},
    {"smiles": "CCCCN(Cc1ccccc1)Cc1c(C(F)(F)F)nc2n(-c3c(C)cc(C)cc3C)c(Cl)cn12", "note": "[Example 311, Benzyl-butyl-[6-chloro-2-trifluoromethyl-7-(2,4,6-trimethyl-phenyl)-7H-imidazo[1,2-a]imidazol-3-ylmethyl]-amine]", "values": [
      {"measurement": "Ki", "result": "< 1000", "unit": "nM"}
    ]},
    {"smiles": "C=C(C)CN(CC)Cc1c(C(F)(F)F)nc2n(-c3c(C)cc(C)cc3C)c(Cl)cn12", "note": "[Example 312, [6-Chloro-2-trifluoromethyl-7-(2,4,6-trimethyl-phenyl)-7H-imidazo[1,2-a]imidazol-3-ylmethyl]-ethyl-(2-methyl-allyl)-amine]", "values": [
      {"measurement": "Ki", "result": "< 100", "unit": "nM"}
    ]},
    {"smiles": "CCCN(Cc1ccc([N+](=O)[O-])cc1)Cc1c(C(F)(F)F)nc2n(-c3c(C)cc(C)cc3C)c(Cl)cn12", "note": "[Example 313, [6-Chloro-2-trifluoromethyl-7-(2,4,6-trimethyl-phenyl)-7H-imidazo[1,2-a]imidazol-3-ylmethyl]-(4-nitro-benzyl)-propyl-amine]", "values": [
      {"measurement": "Ki", "result": "< 1000", "unit": "nM"}
    ]},
    {"smiles": "Cc1cc(C)c(-n2c(Cl)cn3c(CN(C)Cc4ccco4)c(C(F)(F)F)nc23)c(C)c1", "note": "[Example 314, [6-Chloro-2-trifluoromethyl-7-(2,4,6-trimethyl-phenyl)-7H-imidazo[1,2-a]imidazol-3-ylmethyl]-furan-2-ylmethyl-methyl-amine]", "values": [
      {"measurement": "Ki", "result": "< 1000", "unit": "nM"}
    ]},
    {"smiles": "CCN(Cc1ccc(Cl)c(Cl)c1)Cc1c(C(F)(F)F)nc2n(-c3c(C)cc(C)cc3C)c(Cl)cn12", "note": "[Example 315, [6-Chloro-2-trifluoromethyl-7-(2,4,6-trimethyl-phenyl)-7H-imidazo[1,2-a]imidazol-3-ylmethyl]-(3,4-dichloro-benzyl)-ethyl-amine]", "values": [
      {"measurement": "Ki", "result": "< 1000", "unit": "nM"}
    ]},
    {"smiles": "Cc1cc(C)c(-n2c(Cl)cn3c(CN4CCCC4Cc4ccccc4)c(C(F)(F)F)nc23)c(C)c1", "note": "(stereo not drawn) [Example 316, 5-(2-Benzyl-pyrrolidin-1-ylmethyl)-2-chloro-6-trifluoromethyl-1-(2,4,6-trimethyl-phenyl)-1H-imidazo[1,2-a]imidazole]", "values": [
      {"measurement": "Ki", "result": "< 1000", "unit": "nM"}
    ]},
    {"smiles": "Cc1cc(C)c(-n2c(Cl)cn3c(CN4CCC(c5ccccc5)C4)c(C(F)(F)F)nc23)c(C)c1", "note": "(stereo not drawn) [Example 317, 2-Chloro-5-(3-phenyl-pyrrolidin-1-ylmethyl)-6-trifluoromethyl-1-(2,4,6-trimethyl-phenyl)-1H-imidazo[1,2-a]imidazole]", "values": [
      {"measurement": "Ki", "result": "< 1000", "unit": "nM"}
    ]},
    {"smiles": "Cc1cc(C)c(-n2c(Cl)cn3c(CN(CC4CC4)CC(F)(F)C(F)(F)F)c(C(F)(F)F)nc23)c(C)c1", "note": "[Example 318]", "values": [
      {"measurement": "Ki", "result": "< 10", "unit": "nM"}
    ]},
    {"smiles": "CCN(Cc1c(C(F)(F)F)nc2n(-c3c(C)cc(C)cc3C)c(Cl)cn12)CC1CC1", "note": "[Example 319, [6-Chloro-2-trifluoromethyl-7-(2,4,6-trimethyl-phenyl)-7H-imidazo[1,2-a]imidazol-3-ylmethyl]-cyclopropylmethyl-ethyl-amine]", "values": [
      {"measurement": "Ki", "result": "< 10", "unit": "nM"}
    ]},
    {"smiles": "Cc1cc(C)c(-n2c(Cl)cn3c(CN(CC4CCC4)CC(F)(F)F)c(C(F)(F)F)nc23)c(C)c1", "note": "[Example 320, [6-Chloro-2-trifluoromethyl-7-(2,4,6-trimethyl-phenyl)-7H-imidazo[1,2-a]imidazol-3-ylmethyl]-cyclobutylmethyl-(2,2,2-trifluoro-ethyl)-amine]", "values": [
      {"measurement": "Ki", "result": "< 10", "unit": "nM"}
    ]},
    {"smiles": "CCCN(CCC(F)(F)F)Cc1c(C(F)(F)F)nc2n(-c3c(C)cc(C)cc3C)c(Cl)cn12", "note": "[Example 321, [6-Chloro-2-trifluoromethyl-7-(2,4,6-trimethyl-phenyl)-7H-imidazo[1,2-a]imidazol-3-ylmethyl]-propyl-(3,3,3-trifluoro-propyl)-amine]", "values": [
      {"measurement": "Ki", "result": "< 10", "unit": "nM"}
    ]},
    {"smiles": "CCCN(Cc1c(C(F)(F)F)nc2n(-c3c(C)cc(C)cc3C)c(Cl)cn12)CC(F)(F)F", "note": "[Example 322, [6-Chloro-2-trifluoromethyl-7-(2,4,6-trimethyl-phenyl)-7H-imidazo[1,2-a]imidazol-3-ylmethyl]-propyl-(2,2,2-trifluoro-ethyl)-amine]", "values": [
      {"measurement": "Ki", "result": "< 10", "unit": "nM"}
    ]},
    {"smiles": "CCCN(Cc1c(C(F)(F)F)nc2n(-c3c(C)cc(C)cc3C)c(Cl)cn12)CC(F)(F)C(F)(F)F", "note": "[Example 323, [6-Chloro-2-trifluoromethyl-7-(2,4,6-trimethyl-phenyl)-7H-imidazo[1,2-a]imidazol-3-ylmethyl]-(2,2,3,3,3-pentafluoro-propyl)-propyl-amine]", "values": [
      {"measurement": "Ki", "result": "< 1000", "unit": "nM"}
    ]},
    {"smiles": "Cc1cc(C)c(-n2c(Cl)cn3c(CN(CCc4ccccc4)CC(F)(F)F)c(C(F)(F)F)nc23)c(C)c1", "note": "[Example 324, [6-Chloro-2-trifluoromethyl-7-(2,4,6-trimethyl-phenyl)-7H-imidazo[1,2-a]imidazol-3-ylmethyl]-phenethyl-(2,2,2-trifluoro-ethyl)-amine]", "values": [
      {"measurement": "Ki", "result": "< 1000", "unit": "nM"}
    ]},
    {"smiles": "Cc1cc(C)c(-n2c(Cl)cn3c(CN(CCC(F)(F)F)Cc4ccccc4)c(C(F)(F)F)nc23)c(C)c1", "note": "[Example 327, Benzyl-[6-chloro-2-trifluoromethyl-7-(2,4,6-trimethyl-phenyl)-7H-imidazo[1,2-a]imidazol-3-ylmethyl]-(3,3,3-trifluoro-propyl)-amine]", "values": [
      {"measurement": "Ki", "result": "< 100", "unit": "nM"}
    ]},
    {"smiles": "Cc1cc(C)c(-n2c(Cl)cn3c(CN(CCC4CC4)CCC(F)(F)F)c(C(F)(F)F)nc23)c(C)c1", "note": "[Example 330, [6-Chloro-2-trifluoromethyl-7-(2,4,6-trimethyl-phenyl)-7H-imidazo[1,2-a]imidazol-3-ylmethyl]-(2-cyclopropyl-ethyl)-(3,3,3-trifluoro-propyl)-amine]", "values": [
      {"measurement": "Ki", "result": "< 10", "unit": "nM"}
    ]},
    {"smiles": "Cc1cc(C)c(-n2c(Cl)cn3c(CN(CCC4CC4)CC(F)(F)F)c(C(F)(F)F)nc23)c(C)c1", "note": "[Example 331, [6-Chloro-2-trifluoromethyl-7-(2,4,6-trimethyl-phenyl)-7H-imidazo[1,2-a]imidazol-3-ylmethyl]-(2-cyclopropyl-ethyl)-(2,2,2-trifluoro-ethyl)-amine]", "values": [
      {"measurement": "Ki", "result": "< 10", "unit": "nM"}
    ]},
    {"smiles": "Cc1cc(C)c(-n2c(Cl)cn3c(CN(Cc4ccc(F)cc4)CC(F)(F)F)c(C(F)(F)F)nc23)c(C)c1", "note": "[Example 332]", "values": [
      {"measurement": "Ki", "result": "< 1000", "unit": "nM"}
    ]},
    {"smiles": "Cc1cc(C)c(-n2c(Cl)cn3c(CN(CCC(F)(F)F)Cc4ccc(F)cc4)c(C(F)(F)F)nc23)c(C)c1", "note": "[Example 333]", "values": [
      {"measurement": "Ki", "result": "< 100", "unit": "nM"}
    ]},
    {"smiles": "Cc1cc(C)c(-n2c(Cl)cn3c(CN(CCC(F)(F)F)Cc4ccc(Cl)cc4)c(C(F)(F)F)nc23)c(C)c1", "note": "[Example 336, (4-Chloro-benzyl)-[6-chloro-2-trifluoromethyl-7-(2,4,6-trimethyl-phenyl)-7H-imidazo[1,2-a]imidazol-3-ylmethyl]-(3,3,3-trifluoro-propyl)-amine]", "values": [
      {"measurement": "Ki", "result": "< 10", "unit": "nM"}
    ]},
    {"smiles": "C=CCN(CCC)Cc1c(C(F)(F)F)nc2n(-c3c(C)cc(C)cc3C)c(Cl)cn12", "note": "[Example 339, Allyl-[6-chloro-2-trifluoromethyl-7-(2,4,6-trimethyl-phenyl)-7H-imidazo[1,2-a]imidazol-3-ylmethyl]-propyl-amine]", "values": [
      {"measurement": "Ki", "result": "< 10", "unit": "nM"}
    ]},
    {"smiles": "CCCN(Cc1cccc(F)c1)Cc1c(C(F)(F)F)nc2n(-c3c(C)cc(C)cc3C)c(Cl)cn12", "note": "[Example 340, [6-Chloro-2-trifluoromethyl-7-(2,4,6-trimethyl-phenyl)-7H-imidazo[1,2-a]imidazol-3-ylmethyl]-(3-fluoro-benzyl)-propyl-amine]", "values": [
      {"measurement": "Ki", "result": "< 1000", "unit": "nM"}
    ]},
    {"smiles": "CCN(Cc1c(C(F)(F)F)nc2n(-c3c(C)cc(C)cc3C)c(Cl)cn12)CC1CCC1", "note": "[Example 341, [6-Chloro-2-trifluoromethyl-7-(2,4,6-trimethyl-phenyl)-7H-imidazo[1,2-a]imidazol-3-ylmethyl]-cyclobutylmethyl-ethyl-amine]", "values": [
      {"measurement": "Ki", "result": "< 10", "unit": "nM"}
    ]},
    {"smiles": "CCCN(CCOC)Cc1c(C(F)(F)F)nc2n(-c3c(C)cc(C)cc3C)c(Cl)cn12", "note": "[Example 342, [6-Chloro-2-trifluoromethyl-7-(2,4,6-trimethyl-phenyl)-7H-imidazo[1,2-a]imidazol-3-ylmethyl]-(2-methoxy-ethyl)-propyl-amine]", "values": [
      {"measurement": "Ki", "result": "< 100", "unit": "nM"}
    ]},
    {"smiles": "Cc1cc(C)c(-n2c(Cl)cn3c(CN(CCC(F)(F)F)Cc4cccc(F)c4)c(C(F)(F)F)nc23)c(C)c1", "note": "[Example 343, [6-Chloro-2-trifluoromethyl-7-(2,4,6-trimethyl-phenyl)-7H-imidazo[1,2-a]imidazol-3-ylmethyl]-(3-fluoro-benzyl)-(3,3,3-trifluoro-propyl)-amine]", "values": [
      {"measurement": "Ki", "result": "< 100", "unit": "nM"}
    ]},
    {"smiles": "CCCN(CCC)Cc1c(C(F)(F)F)nc2n(-c3c(C)cc(C)cc3C)c(Cl)cn12", "note": "[Example 344, [6-Chloro-2-trifluoromethyl-7-(2,4,6-trimethyl-phenyl)-7H-imidazo[1,2-a]imidazol-3-ylmethyl]-dipropyl-amine]", "values": [
      {"measurement": "Ki", "result": "< 100", "unit": "nM"}
    ]}
  ]
}
